For assay [1], the target named is Diamine oxidase AOC1 (Rattus norvegicus). Nature of the assay: Inhibition of rat liver DAO using putrescine as substrate after 1 hr by fluorometric assay.
Assay [2] addresses Diamine oxidase AOC1 (Homo sapiens). In words: Inhibition of human DAO expressed in CHO cells using putrescine as substrate after 1 hr by fluorometric assay.

Some results are limits rather than exact numbers.

`CC(=O)Nc1nc(CCc2ccc(N=C(N)N)cc2)cs1`: the IC50 (commonly the concentration needed to halve the response being measured) is 75 µM in assay [1] and more than 100 µM in assay [2].

Source of the values: BindingDB's records for doi:10.1016/j.bmc.2012.12.025 (Astellas Pharma, 2013).
